{
  "source": "patent US20150374673A1",
  "about": "“Combination Therapy for the Treatment of Nosocomial Pneumonia” (priority 2013, published 2015)",
  "key": {"[1]": {"system": "P. aeruginosa", "experiment": "Neutropenic CD-1 mice with experimental pneumonia (lung infection), exposure response of ceftazidime q2h and avibactam q2h or q8h", "type": "in vivo, Pseudomonas aeruginosa", "conditions": "for % fT > CT1 q2 / % fT > CT1 q8 / TDD AVI q2h / TDD AVI q8h / log TDD AVI q2h / log TDD AVI q8h: Dose CAZ 16 mg/kg q2h; for % fT > CT1 q2 / % fT > CT1 q8: CT 1 mg/L; for TDD AVI q2h / TDD AVI q8h / log TDD AVI q2h / log TDD AVI q8h: static effect; for factor by which daily dose for static effect was lower q2h than q8h: with ceftazidime q2h", "procedure": "CD-1 neutropenic mice were infected with approx. 10^6 cfu in the lung by instillation through the nares under light anaesthesia. […] For avibactam the % time of the dosing interval above a virtual in vivo threshold concentration, CT, % fT>CT, were calculated (CT of 0.25, 1 and 4 mg/L).\nOutbred female CD-1 mice (Charles River, Netherlands), 4 to 5 weeks old, weighing 20 to 25 g were used in the experiments. Granulocytopenia was induced by two doses of cyclophosphamide s.c. four days (150 mg/kg) and one day (100 mg/kg) before the infection experiment.\nNeutropenic mice were infected with one P. aeruginosa strain per animal. 0.05 mL of bacterial suspension consisting of approximately 10^5-10^6 bacteria was inoculated intra-nasally with a syringe under light anaesthesia with isoflurane. […] All dosing regimens were performed in at least two animals. At t=0 h, 2 mice were humanely sacrificed to determine the initial inoculum just before starting treatment. All other animals were sacrificed at t=24 h unless the welfare of the animals indicated earlier termination was necessary, following animal welfare regulations. Lungs were taken and moved to a pre-cooled 10-mL plastic tube (Transport Tube, Omnilabo, NL) containing 2 mL phosphate buffered saline (PBS; NaCl 8.00 g/L, Na2HPO4*2 H2O 1.44 g/L, KH2PO4 0.26 g/L, pH 7.2-7.4). Subsequently lungs were grounded using an Ultra-Turrax (IKA Labortechnik, Germany). A tenfold dilution series was prepared and 3×10 μL plated (Chromagar, Biomerieux, NL) per dilution. The following day, colonies were counted and the number of cfu per lung calculated.\nThis regimen was chosen because of the sensitivity to changes in effects of avibactam. The amount of avibactam administered varied in frequency and dose. […] The drug ? effect was determined as the difference between the log10 cfu values at t=24 h and t=0 h (mean value of 2 mice) expressed as dcfu. Free drug concentrations were used in all calculations. […] For avibactam % fT>CT, the % time of the dosing interval above threshold concentration CT were calculated for CT of 0.25, 1 and 4 mg/L. The CT values were chosen based on the activity of avibactam in vitro, 4 mg/L being used in susceptibility testing, but lower concentrations also being active as determined in in vitro checkerboard studies."}, "[2]": {"system": "E. faecalis", "experiment": "Checkerboard assay, mean FICI", "type": "cell-based", "procedure": "(§1) All MIC determinations including those performed in the checkerboard assay were done in cation-adjusted Mueller-Hinton broth (purchased from Becton Dickinson, Oxford UK).\n(§2) Initial MIC data were determined by microbroth dilution methods as recommended by CLSI (2012b). Checkerboards were made in accordance with the method given by Pillai et. al., ? Antimicrobial Combinations in Antibiotics, LABORATORY MEDICINE (Lorian Ed., 3rd Ed. (2003)) p. 365-440 as per standard microbroth dilution tests but with agents in combination. […] A final avibactam concentration of 4 mg/L was used throughout the study. Antibacterial agents were combined into microtitre plates using the Evolution III liquid handling system.\n(§3) Checkerboard plates were inoculated and incubated in accordance with CLSI guidelines (2012b) at 35±2° C. in ambient air for 16-20 h. MICs were recorded the following day as the lowest concentration or combination of concentrations required to inhibit all visible growth. From the MIC data, FICIs were calculated for each checkerboard according to the method of Meletiadis et. al., Defining Fractional Inhibitory Concentration Index Cutoffs for Additive Interactions Based on Self-Drug Additive Combinations, Monte Carlo Simulation Analysis and in vitro-in vivo Correlation Data for Antifungal Drug Combinations Against Aspergillus fumigatus, AAC 54:602-09 (2010).\n(§4) FICI=FICA+FICB=(CA/MICA)+(CB/MICB)\n(§5) As each checkerboard gives a number of FICI values, an arithmetic mean is calculated from all values to give the mean FICI for two agents combined against one isolate. Mean FICIs were interpreted by the following criteria given by Odds (2003) which are now the accepted criteria by most journals: […]"}, "[3]": {"system": "all isolates (Enterobacteriaceae, P. aeruginosa, S. aureus, E. faecalis)", "experiment": "Checkerboard assay, mean FICI over all isolates", "type": "cell-based", "procedure": "as §1, §2, §3, §4, §5"}, "[4]": {"system": "Gram-negative isolates", "experiment": "MIC alone compared with MIC in presence of Cmax and 0.5×Cmax of vancomycin and linezolid, all Gram-negative isolates", "type": "cell-based", "conditions": "with Cmax and 0.5×Cmax of vancomycin and linezolid", "procedure": "as §2"}, "[5]": {"system": "Gram-positive isolates", "experiment": "MIC alone compared with MIC in presence of Cmax and 0.5×Cmax of colistin, all Gram-positive isolates", "type": "cell-based", "conditions": "with Cmax and 0.5×Cmax of colistin", "source_text": "A mean FICI was taken from each combination checkerboard and interpreted according to accepted criteria. […] Four highly-expressed AmpC, eight extended-spectrum beta-lactamase (ESBL) including two CTX-M-15 and five KPC producing Enterobacteriaceae and P. aeruginosa were included as well as representatives from each species with basal MICs. Three S. aureus and three E. faecalis were also included."}, "[6]": {"conditions": "q2h and q8h, strains 11 and 18, lung"}, "[7]": {"conditions": "with Col, Gram-negative isolates"}, "[8]": {"conditions": "with Lzd, Gram-positive isolates"}, "[9]": {"conditions": "with Van, Gram-positive isolates"}},
  "note": "“And” between values parts separate entries of the source, which are not always exact repeats. Equal entries are not always repeated.",
  "data": [
    {"compound": "NC(=O)[C@@H]1CC[C@@H]2CN1C(=O)N2OS(=O)(=O)[O-].[Na+]", "note": "[avibactam, [(2S,5R)-2-carbamoyl-7-oxo-1,6-diazabicyclo[3.2.1]octan-6-yl]hydrogen sulfate]", "values": [
      {"measurement": "efficacy by dosing frequency", "setting": "[1]; avibactam q2h or q8h with ceftazidime q2h, lung", "result": "q2h regimen was more efficacious than the q8h regimen"},
      {"measurement": "effect on static % fT>MIC of ceftazidime", "setting": "[1]; lung infection, all strains", "result": "reduced"},
      {"measurement": "% fT > CT1 q2, mean", "setting": "[1]; mean of strains 18 and 11 (sd 2.7), lung infection, avibactam q2h", "result": 21.6, "unit": "%"},
      {"measurement": "% fT > CT1 q8, mean", "setting": "[1]; mean of strains 18 and 11 (sd 3.4), lung infection, avibactam q8h", "result": 18.5, "unit": "%"},
      {"measurement": "overall mean % fT>CT 1 mg/L for static effect", "setting": "[1]; [6]", "result": 20.1, "unit": "%"},
      {"measurement": "range of % fT>CT 1 mg/L for static effect", "setting": "[1]; [6]", "result": "16.1-23.5"},
      {"measurement": "% fT > CT1 q2", "setting": "[1]; strain 11, lung infection, avibactam q2h", "result": 19.7, "unit": "%"},
      {"measurement": "% fT > CT1 q8", "setting": "[1]; strain 11, lung infection, avibactam q8h", "result": 20.9, "unit": "%"},
      {"measurement": "TDD AVI q2h", "setting": "[1]; strain 11, lung infection", "result": 45.65, "unit": "mg/kg"},
      {"measurement": "TDD AVI q8h", "setting": "[1]; strain 11, lung infection", "result": 463.29, "unit": "mg/kg"},
      {"measurement": "log TDD AVI q2h", "setting": "[1]; strain 11, lung infection", "result": 1.66, "unit": "mg/kg"},
      {"measurement": "log TDD AVI q8h", "setting": "[1]; strain 11, lung infection", "result": 2.67, "unit": "mg/kg"},
      {"measurement": "factor by which daily dose for static effect was lower q2h than q8h", "setting": "[1]; strain 11, lung", "result": 2.7},
      {"measurement": "% fT > CT1 q2", "setting": "[1]; strain 18, lung infection, avibactam q2h", "result": 23.5, "unit": "%"},
      {"measurement": "% fT > CT1 q8", "setting": "[1]; strain 18, lung infection, avibactam q8h", "result": 16.1, "unit": "%"},
      {"measurement": "TDD AVI q2h", "setting": "[1]; strain 18, lung infection", "result": 56.65, "unit": "mg/kg"},
      {"measurement": "TDD AVI q8h", "setting": "[1]; strain 18, lung infection", "result": 150.57, "unit": "mg/kg"},
      {"measurement": "log TDD AVI q2h", "setting": "[1]; strain 18, lung infection", "result": 1.75, "unit": "mg/kg"},
      {"measurement": "log TDD AVI q8h", "setting": "[1]; strain 18, lung infection", "result": 2.18, "unit": "mg/kg"},
      {"measurement": "factor by which daily dose for static effect was lower q2h than q8h", "setting": "[1]; strain 18, lung", "result": 10.1},
      {"measurement": "% fT>CT 1 mg/L estimates for stasis over 24 h", "setting": "[1]; the other two of strains 7, 5, 19 and 1 (not 1 and 19), ceftazidime q2h, lung", "result": "21.4% and 19.4%"},
      {"measurement": "% fT>CT 1 mg/L estimates", "setting": "[1]; two control strains, lung", "result": "22.4% and 21.6%"}
    ]},
    {"compound": "CC(C)(O/N=C(\\C(=O)N[C@@H]1C(=O)N2C(C(=O)[O-])=C(C[n+]3ccccc3)CS[C@H]12)c1csc(N)n1)C(=O)O", "note": "[ceftazidime, (6R,7R)-7-[[(2Z)-2-(2-amino-1,3-thiazol-4-yl)-2-(1-hydroxy-2-methyl-1-oxopropan-2-yl)oxyiminoacetyl]amino]-8-oxo-3-(pyridin-1-ium-1-ylmethyl)-5-thia-1-azabicyclo[4.2.0]oct-2-ene-2-carboxylate pentahydrate]", "values": [
      {"measurement": "Mean FICI", "setting": "[2]; with Lev, isolate 25 E. faecalis Basal MICs", "result": 1.15},
      {"measurement": "Mean FICI", "setting": "[2]; with Lev, isolate 26 E. faecalis Basal MICs", "result": 1.20},
      {"measurement": "Mean FICI", "setting": "[2]; with Lev, isolate 27 E. faecalis Basal MICs", "result": 0.78},
      {"measurement": "Mean FICI", "setting": "[2]; with Lzd, isolate 25 E. faecalis Basal MICs", "result": 1.72},
      {"measurement": "Mean FICI", "setting": "[2]; with Lzd, isolate 26 E. faecalis Basal MICs", "result": 0.99},
      {"measurement": "Mean FICI", "setting": "[2]; with Lzd, isolate 27 E. faecalis Basal MICs", "result": 1.64},
      {"measurement": "Mean FICI", "setting": "[2]; with Tig, isolate 25 E. faecalis Basal MICs", "result": 1.19},
      {"measurement": "Mean FICI", "setting": "[2]; with Tig, isolate 26 E. faecalis Basal MICs", "result": 0.73},
      {"measurement": "Mean FICI", "setting": "[2]; with Tig, isolate 27 E. faecalis Basal MICs", "result": 1.16},
      {"measurement": "Mean FICI", "setting": "[2]; with Tob, isolate 25 E. faecalis Basal MICs", "result": 0.84},
      {"measurement": "Mean FICI", "setting": "[2]; with Tob, isolate 26 E. faecalis Basal MICs", "result": 0.74},
      {"measurement": "Mean FICI", "setting": "[2]; with Tob, isolate 27 E. faecalis Basal MICs", "result": 0.99},
      {"measurement": "Mean FICI", "setting": "[2]; with Van, isolate 25 E. faecalis Basal MICs", "result": 1.63},
      {"measurement": "Mean FICI", "setting": "[2]; with Van, isolate 26 E. faecalis Basal MICs", "result": 1.18},
      {"measurement": "Mean FICI", "setting": "[2]; with Van, isolate 27 E. faecalis Basal MICs", "result": 1.38},
      {"measurement": "interaction, synergistic or antagonistic, with any other antibacterial agent", "setting": "[3]; tobramycin, levofloxacin, vancomycin, linezolid, tigecycline, colistin", "result": "No interaction"},
      {"measurement": "Mean FICI range high", "setting": "[3]; [7]", "result": 1.66},
      {"measurement": "Mean FICI range low", "setting": "[3]; [7]", "result": 0.85},
      {"measurement": "Mean FICI range high", "setting": "[3]; with Lev, all isolates", "result": 1.33},
      {"measurement": "Mean FICI range low", "setting": "[3]; with Lev, all isolates", "result": 0.78},
      {"measurement": "Mean FICI range high", "setting": "[3]; [8]", "result": 1.64},
      {"measurement": "Mean FICI range low", "setting": "[3]; [8]", "result": 0.99},
      {"measurement": "Mean FICI range high", "setting": "[3]; with Tig, all isolates", "result": 1.99},
      {"measurement": "Mean FICI range low", "setting": "[3]; with Tig, all isolates", "result": 0.73},
      {"measurement": "Mean FICI range high", "setting": "[3]; with Tob, all isolates", "result": 1.60},
      {"measurement": "Mean FICI range low", "setting": "[3]; with Tob, all isolates", "result": 0.64},
      {"measurement": "Mean FICI range high", "setting": "[3]; [9]", "result": 1.63},
      {"measurement": "Mean FICI range low", "setting": "[3]; [9]", "result": 0.99},
      {"measurement": "MIC alone and in combination", "setting": "[4]", "result": "remained within one doubling dilution in all cases"},
      {"measurement": "MIC alone and in combination", "setting": "[5]", "result": "remained within one doubling dilution in all cases"}
    ]}
  ]
}
